Literature values in patent US11173064B2, “High-precision drug delivery by dual-domain ocular device” (LYNTHERA CORPORATION, priority 2016, dated 2021).
Structures can show the parent of a compound that is named as a salt.

Conditions: octanol/water

| SMILES | log P |
| --- | --- |
| CCNC(=O)CCC/C=C\C[C@@H]1[C@@H](/C=C/[C@@H](O)CCc2ccccc2)[C@H](O)C[C@@H]1O [bimatoprost] | ~3.2 |
| CC(C)(C)NC[C@H](O)COc1nsnc1N1CCOCC1 [timolol maleate] | ~1.4 |
